Key:
[1] = test system: Erysiphe graminis f. sp. tritici; experiment: Test A: wheat powdery mildew, preventive spray on wheat seedlings, visual disease rating; assay type: in vivo; settings: for pest or weed control at 40 ppm / pest or weed control at 200 ppm: Blumeria graminis, 192 h; for pest or weed control at 40 ppm: 40 ppm (compound number followed by *); for Test A rating (% disease control) / pest or weed control at 200 ppm: 200 ppm, 100 = 100% disease control, 0 = no control
Procedure, shortened: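 Acetone/water (50/50) suspension with 250 ppm surfactant sprayed to run-off on wheat seedlings (200 ppm ≈ 500 g/ha); inoculated next day with E. graminis spore dust. Incubated 8 days at 20° C, then visually rated 0–100% disease control versus untreated controls; tests at 200 ppm or 40 ppm.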

Septoria nodorum = experiment: Test D: wheat glume blotch, preventive spray on wheat seedlings, visual disease rating; assay type: in vivo; settings: for pest or weed control at 40 ppm / pest or weed control at 200 ppm: Parastagonospora nodorum, 216 h; for pest or weed control at 40 ppm: 40 ppm (compound number followed by *); for Test D rating (% disease control) / pest or weed control at 200 ppm: 200 ppm, 100 = 100% disease control, 0 = no control
Procedure, shortened: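 Compounds in 3% acetone, then 50/50 acetone–water with 250 ppm Trem 014, sprayed to run-off at 200 ppm (500 g/ha; some at 40 ppm) one day before spore inoculation. Held 48 h saturated at 20 °C, then 7 days at 20 °C; visual rating as % disease control vs untreated (0–100).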

Septoria tritici = experiment: Test C: wheat leaf blotch, preventive spray on wheat seedlings, visual disease rating; assay type: in vivo; settings: for pest or weed control at 40 ppm: 40 ppm (compound number followed by *)
Procedure, shortened: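 Wheat seedlings sprayed to run-off with compound in acetone/water plus 250 ppm surfactant at 200 ppm (≈500 g/ha), or 40 ppm where marked; inoculated with Septoria tritici next day. Held saturated at 20 °C for 48 h, then 19 days at 20 °C; disease control rated visually 0–100 versus controls.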

Alternaria solani = experiment: Test E: tomato early blight, preventive spray on tomato seedlings, visual disease rating; assay type: in vivo; settings: for pest or weed control at 40 ppm / pest or weed control at 200 ppm: Alternaria solani, 168 h; for pest or weed control at 40 ppm: 40 ppm (compound number followed by *); for Test E rating (% disease control) / pest or weed control at 200 ppm: 200 ppm, 100 = 100% disease control, 0 = no control
Procedure, shortened: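 Seedlings sprayed to run-off with compound in acetone/water plus 250 ppm Trem 014 (200 ppm ≈ 500 g/ha), inoculated with spores next day. Held 48 h saturated at 27 °C, then 5 days at 20 °C; visual rating 0–100% disease control relative to controls.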

Botrytis cinerea = experiment: Test F: tomato botrytis, preventive spray on tomato seedlings, visual disease rating; assay type: in vivo; settings: for pest or weed control at 40 ppm / pest or weed control at 200 ppm: Botrytis cinerea, 120 h; for pest or weed control at 40 ppm: 40 ppm (compound number followed by *); for Test F rating (% disease control) / pest or weed control at 200 ppm: 200 ppm, 100 = 100% disease control, 0 = no control
Procedure, shortened: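 Tomato seedlings sprayed to run-off with compound suspended in acetone/water (50/50) plus 250 ppm Trem 014, at 200 ppm (≈500 g/ha) or 40 ppm where marked. Inoculated next day with B. cinerea spores, 48 h saturated atmosphere at 20 °C, then 3 days at 24 °C. Visual rating, 0–100% disease control relative to controls.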

[2] = test system: Puccinia recondite f. sp. tritici; experiment: Test B: wheat leaf rust, preventive spray on wheat seedlings, visual disease rating; assay type: in vivo; settings: for pest or weed control at 40 ppm / pest or weed control at 200 ppm: 192 h; for pest or weed control at 40 ppm: 40 ppm (compound number followed by *); for Test B rating (% disease control) / pest or weed control at 200 ppm: 200 ppm, 100 = 100% disease control, 0 = no control
Procedure, shortened: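 Wheat seedlings were sprayed to run-off with compound suspension, 200 ppm (≈500 g/ha) or 40 ppm where marked, containing surfactant in acetone/water. Inoculation with Puccinia recondita spores followed one day later, then 24 h in saturated humidity at 20° C and 7 days at 20° C. Disease control was rated visually, 0–100% versus controls.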

Plasmopara viticola = experiment: Test H: grape downy mildew, spray after inoculation of grape seedlings, visual disease rating; assay type: in vivo; settings: 200 ppm, 100 = 100% disease control, 0 = no control
Rhizoctonia oryzae = experiment: Test G: turf brown patch, preventive spray on creeping bent grass seedlings, visual disease rating; assay type: in vivo; settings: 200 ppm, 100 = 100% disease control, 0 = no control
Description: General protocol for preparing test suspensions for Tests A-H: The test compounds were first dissolved in acetone in an amount equal to 3% of the final volume and then suspended at the desired concentration (in ppm) in acetone and purified water (50/50 mix) containing 250 ppm of the surfactant Trem® 014 (polyhydric alcohol esters). The resulting test suspensions were then used in tests A-H. Spraying a 200 ppm test suspension to the point of run-off on the test plants was the equivalent of a rate of 500 g/ha.
The test suspension was sprayed to the point of run-off on creeping bent grass seedlings. The following day the seedlings were inoculated with a spore suspension of Rhizoctonia oryzae (the causal agent of turf brown patch) and incubated in a saturated atmosphere at 27° C. for 48 h, and then moved to a growth chamber at 27° C. for 3 days, after which time disease ratings were visually made.
Results for Tests A-H are given in Table A. In the table, a rating of 100 indicates 100% disease control and a rating of 0 indicates no disease control (relative to the controls). A dash (-) indicates no test results. All results are for compounds tested at 200 ppm except where the compound number is followed by “*” which indicates the compound was tested at 40 ppm.

[3] = 200 ppm, 100 = 100% disease control, 0 = no control

Compound | Test A rating (% disease control) [1] | Test D rating (% disease control) (Septoria nodorum) | Test C rating (% disease control) (Septoria tritici; [3]) | Test E rating (% disease control) (Alternaria solani) | Test H rating (% disease control) (Plasmopara viticola) | Test F rating (% disease control) (Botrytis cinerea) | Test G rating (% disease control) (Rhizoctonia oryzae) | Test B rating (% disease control) [2] | further results
COc1cc(OC)cc(-c2c(-c3ccccc3F)cnc(C)c2-c2c(F)cc(F)cc2F)c1 [Compound 89, 4-(3,5-dimethoxyphenyl)-5-(2-fluorophenyl)-2-methyl-3-(2,4,6-trifluorophenyl)pyridine] | – | – | – | – | – | – | – | – | pest or weed control at 40 ppm [1]: 100%; pest or weed control at 40 ppm (Septoria nodorum): 99%; pest or weed control at 40 ppm (Septoria tritici; Zymoseptoria tritici, 504 h): 97%; pest or weed control at 40 ppm (Alternaria solani): 99%; melting point: 123 to 127 °C; pest or weed control at 40 ppm (Botrytis cinerea): 100%; pest or weed control at 40 ppm [2]: 100%
COc1cc(OC)c(Cl)c(-c2c(CC#N)cnc(C)c2-c2c(F)cc(F)cc2F)c1 [Compound 133, 4-(2-chloro-3,5-dimethoxyphenyl)-6-methyl-5-(2,4,6-trifluorophenyl)-3-pyridineacetonitrile] | – | – | – | – | – | – | – | – | pest or weed control at 40 ppm [1]: 98%; pest or weed control at 40 ppm (Septoria nodorum): 95%; pest or weed control at 40 ppm (Septoria tritici; Zymoseptoria tritici, 504 h): 100%; pest or weed control at 40 ppm (Alternaria solani): 99%; melting point: 159 to 165 °C; pest or weed control at 40 ppm (Botrytis cinerea): 100%; pest or weed control at 40 ppm [2]: 100%
COc1cc(OC)cc(-c2c(-c3ccc(F)cc3)cnc(C)c2-c2ccccc2)c1 [Compound 36] | 65% | 0% | 93% | 30% | 0% | 94% | 14% | 0% | –
CCOC(=O)c1cnc(C)c(-c2ccccc2)c1-c1cc(OC)ccc1Cl [Compound 7] | 97% | 0% | 52% | 0% | 0% | 98% | 97% | 74% | –
COc1cc(OC)cc(-c2c(C(C)=O)cnc(C)c2-c2c(F)cc(F)cc2F)c1 [Compound 40, 1-[4-(3,5-dimethoxyphenyl)-6-methyl-5-(2,4,6-trifluorophenyl)-3-pyridinyl]ethanone] | – | – | – | – | – | – | – | – | pest or weed control at 200 ppm [1]: 94%; pest or weed control at 200 ppm (Septoria nodorum): 0%; pest or weed control at 200 ppm (Septoria tritici; Zymoseptoria tritici, 504 h, 200 ppm, 100 = 100% disease control, 0 = no control): 87%; pest or weed control at 200 ppm (Alternaria solani): 97%; pest or weed control at 200 ppm (Plasmopara viticola; Plasmopara viticola, 192 h): 0%; pest or weed control at 200 ppm (Botrytis cinerea): 90%; pest or weed control at 200 ppm (Rhizoctonia oryzae; Waitea circinata, in Agrostis stolonifera, 120 h): 49%; pest or weed control at 200 ppm [2]: 80%
CCOC(=O)c1cnc(C)c(-c2c(F)cc(F)cc2F)c1-c1cc(OC)cc(OC)c1 [Compound 130, ethyl 4-(3,5-dimethoxyphenyl)-6-methyl-5-(2,4,6-trifluorophenyl)-3-pyridinecarboxylate] | – | – | – | – | – | – | – | – | pest or weed control at 200 ppm [1]: 100%; pest or weed control at 200 ppm (Septoria nodorum): 0%; pest or weed control at 200 ppm (Alternaria solani): 99%; melting point: 93 to 95 °C; pest or weed control at 200 ppm (Botrytis cinerea): 100%; pest or weed control at 200 ppm [2]: 93%
COc1cc(OC)cc(-c2c(C(=O)N(C)C)cnc(C)c2-c2ccccc2)c1 [Compound 10] | 96% | 0% | 33% | 8% | 0% | 80% | 0% | 0% | –
COc1cc(OC)cc(-c2c(-c3ccccc3)c(C)nc(C)c2-c2ccccc2F)c1 [Compound 23] | 62% | 0% | 83% | 0% | 0% | 99% | 0% | 80% | –
COc1cc(OC)cc(-c2c(-c3ccccc3F)cnc(C)c2-c2ccc(F)cc2)c1 [Compound 35] | 99% | 99% | 99% | 99% | 0% | 99% | 99% | 100% | –
COc1cc(OC)cc(-c2c(C(C)C)cnc(C)c2-c2ccccc2)c1 [Compound 4] | 99% | 0% | 99% | 99% | 0% | 99% | 0% | 92% | –
CCOC(=O)c1cnc(C)c(-c2ccccc2)c1-c1cc(OC)c(OC)c(OC)c1 [Compound 6] | 0% | 0% | 1% | 0% | 0% | 89% | 0% | 0% | –
COc1cc(OC)cc(-c2c(C(C)C)c[n+]([O-])c(C)c2-c2ccccc2)c1 [Compound 5] | 98% | 0% | 95% | 90% | 0% | 99% | 0% | 92% | –
